According to patent publication US8183379B2, “Antitumor agents” (Wayne State University, priority 2005, dated 2012):
Where two headings read alike, the source gives them in different places.

How the values were obtained:
[1] = system: Mammary Adenocarcinoma 16/C; assay: Exp 2877A: evaluation against early stage Mammary Adenocarcinoma 16/C implanted SC in C3H female mice; format: in vivo
Description: In Experiment #2877A the following general methodologies were employed:
Tumor and Animal Maintenance
Mammary adenocarcinoma-16/C were used in the studies. […] The mice were supplied food and water ad libitum.
Chemotherapy of Solid Tumors
Animals were pooled, implanted subcutaneously with 30 to 60 mg tumor fragments by a 12 gauge trocar on day 0, and again pooled before unselective distribution to the various treatment and control groups. For early stage treatment, chemotherapy was started within 1 to 3 days after tumor implantation while the number of cells was relatively small (10^7 to 10^8 cells). Tumors were measured with a caliper twice weekly. Mice were sacrificed when their tumors reached 1500 mg. Tumor weights are estimated from two-dimensional measurements:
Tumor weight (in mg)=(a×b^2)/2, where a and b are the tumor length and width in (mm), respectively.
End Points for Assessing Antitumor Activity for Solid Tumors
The following quantitative endpoints were used to assess antitumor activity: • a) Tumor growth delay (T−C value), where T is the median time (in days) required for the treatment group tumors to reach a predetermined size (e.g., 1000 mg), and C is the median time (in days) for the control group tumors to reach the same size. Tumor-free survivors are excluded from these calculations (cures are tabulated separately). This value is an important criterion of antitumor effectiveness because it allows the quantification of tumor cell kill. • b) Calculation of tumor cell kill For subcutaneously (SC) growing tumors, the log10 cell kill was calculated from the following formula:
[formula] where T−C is the tumor growth delay as described above and Td is the tumor volume doubling time (in days), estimated from the best fit straight line from a log-linear growth plot of the control group tumors in exponential growth (100 to 800 mg range). The conversion of the T−C values to log10 cell kill is possible because the Td of tumors regrowing post treatment (Rx) approximates the Td values of the tumors in untreated control mice.
The issue of conversion of tumor growth delay (T−C value) to log tumor cell kill is justified in this series because of the large number of cures obtained with 5 of the agents in this XK469 series that have been previously studied and patented. Cures are a clear indication of tumor cell kill (rather than stasis of tumor cell replication).
In selected cases, both for historic in vivo evaluation data as well as data presented here, it is of value to compare log kill numbers from trials of markedly different testing schedules. For this purpose, an activity table was created, and is presented below. It should be noted that an activity rating of +++ to ++++ is needed to effect partial regression (PR) or complete regression (CR) of 100 to 300 mg size masses of most transplanted solid tumors of mice. Thus, an activity rating of + or ++ would not be scored as active by usual clinical criteria. A PR is a reduction in tumor mass to less than 50% of pretreatment size. A CR is a reduction in tumor mass to below palpable size (i.e., reduction to zero detectable mass).

[2] = Description: Mammary adenocarcinoma-16/C were used in the studies. Tumors were maintained in the mouse strain of origin C3H (for the mammary tumors). Individual mouse body weights for each experiment were within 5 grams, and all mice were over 17 grams at the start of therapy. The mice were supplied food and water ad libitum.
The treatment and control groups were measured when the control group tumors reach approximately 700 to 1200 mg in size (median of group). The T/C value in percent is an indication of antitumor effectiveness: A T/C=0% means no tumor growth. […] A T/C equal to or less than 42% is considered significant antitumor activity by the Drug Evaluation Branch of the Division of Cancer Treatment (NCI). A T/C value <10% is considered to indicate highly significant antitumor activity, and is the level used by NCI to justify a clinical trial if toxicity, formulation, and certain other requirements are met (termed DN-2 level activity).

[3] = system: transplantable mouse tumors; settings: cited from earlier work
[4] = Cg 4, IV Q2dx7, 54 mg/kg, total 378 mg/kg
[5] = Cg 5, IV Q2dx7, 34 mg/kg, total 238 mg/kg
[6] = Cg 6, IV Q2dx7, 48-60 mg/kg, total 372 mg/kg
[7] = Cg 7, IV Q2dx7, 30-38 mg/kg, total 234 mg/kg
[8] = Cg 8, IV Qd1,3,5,7-13, 57-125 mg/kg, total 822 mg/kg
[9] = Cg 9, IV Qd1,3,5,7-13, 36-75 mg/kg, total 513 mg/kg

## COc1c(Br)ccc2ccc(Oc3ccc(OC(C)C(=O)O)cc3)nc12 (stereo not drawn) [SH135R, 2-(4-(7-Bromo-8-methoxyquinolin-2-yloxy)phenoxy)propanoic acid]
[1]; [4]
  Activity rating (Comments): (++++) (Highly active ++++ >2.8)
  Log Cell Kill Gross: 5.0
  Log Cell Kill Net: 1.4
  Median Tumor Burden in mg on d10: 0 mg
  T-C: 16.5 days
  T/C %: 0%
  Time to 1000 mg: 25.5 days
  Tumor Free on d43: 0/5
[1]; [5]
  Activity rating (Comments): (++++) (Highly active ++++ >2.8)
  Log Cell Kill Gross: 4.2
  Log Cell Kill Net: 0.6
  Median Tumor Burden in mg on d10: 63 mg
  T-C: 14 days
  T/C %: 5.5%
  Time to 1000 mg: 23 days
  Tumor Free on d43: 0/4
[1]; Cg 5, IV Q2dx7, 34 mg/kg, total 238 mg/kg, listed as SH 135(R)
  T/C %: 0%

## COc1c(Cl)ccc2ccc(Oc3ccc(OC(C)C(=O)O)cc3)nc12 (stereo not drawn) [SH140R, 2-(4-(7-Chloro-8-methoxyquinolin-2-yloxy)phenoxy)propanoic acid]
[1]; [6]
  Activity rating (Comments): (++++) (Highly active ++++ >2.8)
  Log Cell Kill Gross: 4.8
  Log Cell Kill Net: 1.2
  Median Tumor Burden in mg on d10: 0 mg
  T-C: 16 days
  T/C %: 0%
  Time to 1000 mg: 25 days
  Tumor Free on d43: 0/5
[1]; [7]
  Activity rating (Comments): (++++) (Highly active ++++ >2.8)
  Log Cell Kill Gross: 3.6
  Log Cell Kill Net: 0
  Median Tumor Burden in mg on d10: 63 mg
  T-C: 12 days
  T/C %: 5.5%
  Time to 1000 mg: 21 days
  Tumor Free on d43: 0/5
[2]; [6]
  Drug Death (day of death): 0/5
[2]; [7]
  Drug Death (day of death): 0/5

## COc1c(F)ccc2ccc(Oc3ccc(OC(C)C(=O)O)cc3)nc12 (stereo not drawn) [SH144R, 2-(4-(7-Fluoro-8-methoxyquinolin-2-yloxy)phenoxy)propanoic acid]
[1]; [8]
  Activity rating (Comments): (++++) (Highly active ++++ >2.8)
  Log Cell Kill Gross: 4.1
  Log Cell Kill Net: 0.5
  Median Tumor Burden in mg on d10: 0 mg
  T-C: 13.5 days
  T/C %: 0%
  Time to 1000 mg: 22.5 days
  Tumor Free on d43: 0/4
[1]; [9]
  Activity rating (Comments): (+++) (2.0-2.8)
  Log Cell Kill Gross: 2.1
  Log Cell Kill Net: −1.5
  Median Tumor Burden in mg on d10: 320 mg
  T-C: 7 days
  T/C %: 28%
  Time to 1000 mg: 16 days
  Tumor Free on d43: 0/5
[2]; [8]
  Drug Death (day of death): 0/4
[2]; Cg 8, IV Qd1,3,5,7-13, 57-125 mg/kg, total 822 mg/kg, listed as SH 144(R)
  Drug Death (day of death): no drug deaths
[2]; [9]
  Drug Death (day of death): 0/5

## CC(Oc1ccc(Oc2cnc3ccc(Cl)cc3n2)cc1)C(=O)[O-].[Na+] (stereo not drawn) [XK469]
[3]; Corbett et al., Investigational New Drugs 16, 129-139 (1998)
  activity against transplantable mouse tumors: broad activity
[3]; reported, in vivo
  undesirable side effects: in vivo toxicity, e.g., paralytic ileus, GI-epithelial damage, marrow toxicity, neuromuscular toxicity and weight loss
[3]; reported
  potency: relatively low potency
